Converted amounts (≈) assume the structure as drawn. “Also recorded” adds a separate entry of the source. Like-named read-outs stand apart in the source and are kept apart here.
Assays:
[1] = tested on: Staphylococcus aureus (ATCC 29213); assay: Minimum inhibitory concentration (MIC) assay on Mueller-Hinton agar, CLSI guidelines; format: cell-based; details: for antibiotic susceptibility / antibiotic effect (in words): S. aureus; for MIC: S.aureus (ATCC 29213), Mueller-Hinton agar
Source text: (§1) Staphylococcus aureus (ATCC 29213) and Escherichia coli (ATCC 25922) were used.

[2] = tested on: Escherichia coli (ATCC 25922); assay: as above; format: cell-based; details: for antibiotic susceptibility / antibiotic effect (in words): E. coli; for MIC: E.coli (ATCC 25922), Mueller-Hinton agar
Source text: as §1

[3] = tested on: MDA-MB231 cells; assay: Cancer cell migration assay, 8 μm insert, crystal violet staining; format: cell-based; details: 100, 200, 400 or 800 μM, 5 hours, FIG. 5
[4] = tested on: MDA-MB231 cells; details: 100, 200, 400 or 800 μM, cultured 24 hours, FIG. 3
Method: After seeding MDA-MB231 cells into a 24-well plate with 1×10^4 cells/well, the cells were stabilized by culturing for 24 hours.
After the culturing, the cells were incubated for 4 hours with an MTT tetrazolium reagent. Then, cell proliferation was investigated by measuring the absorbance of reduced MTT formazan (3-(4,5-dimethylthiazol-2-yl)-2,5-diphenyl-tetrazolium bromide) at 595 nm. Docetaxel (10 μM), which is currently used as an anticancer agent, was used as a control group.

[5] = tested on: MDA-MB231 breast cancer cells; assay: Exosome secretion inhibition, exosomes counted with Nano-sight LM10; format: cell-based; details: 100 μM, serum-free medium, 24 hours, FIG. 4
Method: MDA-MB231 breast cancer cells were cultured on a 150-mm culture plate. 24 hours later, after removing the medium and washing with PBS, the cells were treated with each compound at 100 μM together with a serum-free medium and cultured for 24 hours. After discarding the medium and centrifuging at 300×g for 3 minutes, 2,500×g for 15 minutes […] 10,000×g for 30 minutes, the supernatant was transferred to a fresh tube.
After filtering through a 200-nm syringe filter, exosome pellets were obtained by centrifuging at 120,000×g for 90 minutes. After redispersing the exosome pellets using PBS, the number of exosomes secreted by the cells was counted using Nano-sight LM10 (Malvern).

SMILES	antibiotic susceptibility / antibiotic effect (in words) [1]	MIC [1] [µg/mL]	antibiotic susceptibility / antibiotic effect (in words) [2]	MIC [2] [µg/mL]	inhibition of migration of the cancer cells [3]	cytotoxicity (MTT, absorbance at 595 nm) [4]	inhibition of secretion of exosomes [5]	MIC ([1]; Staphylococcus aureus, ATCC29213, read-out: MIC) [µg/mL]	MIC ([2]; Escherichia coli, ATCC25922, read-out: MIC) [µg/mL]
CC(=O)Nc1ccc(S(=O)(=O)N(C(C)=O)c2onc(C)c2C)cc1 [SFX-DAS, sulfisoxazole-N^1&N^4-dual acetyl]	no antibiotic susceptibility at all; also recorded: completely disappeared	>512	no antibiotic susceptibility at all; also recorded: completely disappeared	>512	inhibited in a concentration-dependent manner	exhibit cytotoxicity at 100 μM or higher	strongly inhibit the secretion of exosomes	–	–
CC(=O)N(c1onc(C)c1C)S(=O)(=O)c1ccc(N)cc1 [SFX-N1AS, sulfisoxazole-N^1-acetyl]	decreased antibiotic susceptibility; also recorded: reduced significantly	512 (≈ 1660 µM)	decreased antibiotic susceptibility; also recorded: reduced significantly	128 (≈ 414 µM)	inhibited in a concentration-dependent manner	–	strongly inhibit the secretion of exosomes	–	–
CC(=O)Nc1ccc(S(=O)(=O)Nc2onc(C)c2C)cc1 [SFX-N4AS, sulfisoxazole-N^4-acetyl]	no antibiotic susceptibility at all; also recorded: completely disappeared	>512	no antibiotic susceptibility at all; also recorded: completely disappeared	>512	inhibited in a concentration-dependent manner	–	strongly inhibit the secretion of exosomes	–	–
Cc1noc(NS(=O)(=O)c2ccc(N)cc2)c1C [SFX-WT, sulfisoxazole, reference compound]	strong antibiotic susceptibility	–	strong antibiotic susceptibility	–	inhibited in a concentration-dependent manner	–	–	32 (≈ 120 µM)	16 (≈ 59.9 µM)

Reference: patent publication US20210299103A1, “COMPOSITION FOR PREVENTING OR TREATING CANCER, COMPRISING SULFONAMIDE DERIVATIVE AS ACTIVE INGREDIENT” (EXOSTEMTECH CO., LTD., priority 2018, published 2021)
